Test results from patent publication US5677466A, “Labelled fibrinogen receptor antagonists, the use thereof and processes for preparing them” (Dr. Karl Thomae, GmbH, priority 1992, dated 1997).

System: fibrinogen receptor
Assay: fibrinogen receptor binding test with ^3 H-BIBU 52 on human thrombocytes in plasma
Conditions: in the presence of plasma, non-labelled BIBU 52 as competitor
Procedure: The fibrinogen receptor binding test according to the invention was carried out, for example, using (3S,5S)-5-[(4'-amidino-4-biphenylyl)-oxymethyl]-3-carboxymethyl-pyrrolidin-2-one-[3-^3 H-4-biphenylyl][=^3 H-BIBU 52 ZW] as ligand in the following manner:
A suspension of human thrombocytes in plasma is incubated with ^3 H-BIBU 52 and varying concentrations of the substance to be tested. The free and bound ligand is separated off by centrifuging and quantitatively determined by scintillation counting. The inhibition of the ^3 H-BIBU 52 binding by the test substance is determined from the measurements obtained.
In order, for example, to measure the competition of binding of ^3 H-BIBU 52 by non-labelled BIBU 52, blood is taken from an anticubital vein and anticoagulated with trisodium citrate (final concentration 13 mM). The blood is centrifuged for 10 minutes at 170 ×g and the supernatant platelet-rich plasma (PRP) is removed. The remaining blood is sharply centrifuged once more in order to obtain plasma. The PRP is diluted with autologous plasma 1:10. […] 100 μl thereof are measured in order to determine the free ligand. The pellet is dissolved in 500 μl of 0.2N NaOH, 450 μl are mixed with 25 μl of 5N HCl and measured. The residual plasma remaining in the pellet is determined from the ^14 C-content and the bound ligand is determined from the ^3 H-measurement. […]

binding of tritiated BIBU 52 to human thrombocytes (FIG. 1): supression of binding
SMILES: N=C(N)c1ccc(-c2ccc(OC[C@@H]3C[C@@H](CC(=O)O)C(=O)N3)cc2)cc1 [BIBU 52, (3S,5S)-5-[(4'-amidino-4-biphenylyl)-oxymethyl]-3-carboxymethyl-pyrrolidin-2-one]
